Data from the NIST ThermoML archive (doi:10.1016/j.jct.2016.10.023).
Numbers after ± are expanded uncertainties.

Assay: xn = mol fraction of the nth substance listed
Settings: Constant-volume piezometry

CCCCC [pentane] + CCCO
Settings	mass density [kg/m3]
563.15 K, 15195 kPa, Fluid (supercritical or subcritical phases), x1 = 0.9	353.41 ± 1.8
563.15 K, 15944 kPa, Fluid (supercritical or subcritical phases), x1 = 0.8	361.2 ± 1.8
563.15 K, 20883 kPa, Fluid (supercritical or subcritical phases), x1 = 0.2	469.34 ± 2.4
563.15 K, 22608 kPa, Fluid (supercritical or subcritical phases), x1 = 0.9	406.44 ± 2
563.15 K, 23762 kPa, Fluid (supercritical or subcritical phases), x1 = 0.8	417.33 ± 2.1
563.15 K, 29039 kPa, Fluid (supercritical or subcritical phases), x1 = 0.2	508.42 ± 2.6
563.15 K, 36842 kPa, Fluid (supercritical or subcritical phases), x1 = 0.8	465.69 ± 2.4
563.15 K, 41493 kPa, Fluid (supercritical or subcritical phases), x1 = 0.2	545.72 ± 2.8
573.15 K, 1455 kPa, Gas, x1 = 0.8	22.47 ± 0.07
573.15 K, 1761 kPa, Gas, x1 = 0.2	24.87 ± 0.08
573.15 K, 2249 kPa, Gas, x1 = 0.8	36.6 ± 0.11
573.15 K, 3350 kPa, Gas, x1 = 0.8	58.27 ± 0.18
573.15 K, 3774 kPa, Gas, x1 = 0.2	52.88 ± 0.16
573.15 K, 4034 kPa, Fluid (supercritical or subcritical phases), x1 = 0.8	73.62 ± 0.37
573.15 K, 4329 kPa, Fluid (supercritical or subcritical phases), x1 = 0.9	83.18 ± 0.42
573.15 K, 5099 kPa, Fluid (supercritical or subcritical phases), x1 = 0.2	91.19 ± 0.46
573.15 K, 5320 kPa, Fluid (supercritical or subcritical phases), x1 = 0.8	106.15 ± 0.54
573.15 K, 5748 kPa, Fluid (supercritical or subcritical phases), x1 = 0.9	123.05 ± 0.62
573.15 K, 5856 kPa, Fluid (supercritical or subcritical phases), x1 = 0.2	114.08 ± 0.58
573.15 K, 6139 kPa, Fluid (supercritical or subcritical phases), x1 = 0.9	133.8 ± 0.68
573.15 K, 6637 kPa, Fluid (supercritical or subcritical phases), x1 = 0.8	139.97 ± 0.71
573.15 K, 6909 kPa, Fluid (supercritical or subcritical phases), x1 = 0.2	149.98 ± 0.76
573.15 K, 7024 kPa, Fluid (supercritical or subcritical phases), x1 = 0.9	163.56 ± 0.83
573.15 K, 7062 kPa, Fluid (supercritical or subcritical phases), x1 = 0.8	155.67 ± 0.79
573.15 K, 7474 kPa, Fluid (supercritical or subcritical phases), x1 = 0.8	169.37 ± 0.86
573.15 K, 7491 kPa, Fluid (supercritical or subcritical phases), x1 = 0.2	175.18 ± 0.9
573.15 K, 7658 kPa, Fluid (supercritical or subcritical phases), x1 = 0.8	175.6 ± 0.89
573.15 K, 7755 kPa, Fluid (supercritical or subcritical phases), x1 = 0.2	189.17 ± 0.97
573.15 K, 7776 kPa, Fluid (supercritical or subcritical phases), x1 = 0.8	180.39 ± 0.91
573.15 K, 7805 kPa, Fluid (supercritical or subcritical phases), x1 = 0.9	188.99 ± 0.96
573.15 K, 8168 kPa, Fluid (supercritical or subcritical phases), x1 = 0.8	192.69 ± 0.98
573.15 K, 8184 kPa, Fluid (supercritical or subcritical phases), x1 = 0.9	201.88 ± 1
573.15 K, 8351 kPa, Fluid (supercritical or subcritical phases), x1 = 0.2	219.55 ± 1.1
573.15 K, 8805 kPa, Fluid (supercritical or subcritical phases), x1 = 0.9	220.14 ± 1.1
573.15 K, 8815 kPa, Fluid (supercritical or subcritical phases), x1 = 0.8	213.33 ± 1.1
573.15 K, 8859 kPa, Fluid (supercritical or subcritical phases), x1 = 0.2	244.86 ± 1.2
573.15 K, 9002 kPa, Fluid (supercritical or subcritical phases), x1 = 0.8	219.08 ± 1.1
573.15 K, 9138 kPa, Fluid (supercritical or subcritical phases), x1 = 0.2	258.55 ± 1.3
573.15 K, 9198 kPa, Fluid (supercritical or subcritical phases), x1 = 0.9	232.49 ± 1.2
573.15 K, 9211 kPa, Fluid (supercritical or subcritical phases), x1 = 0.2	262.25 ± 1.3
573.15 K, 9316 kPa, Fluid (supercritical or subcritical phases), x1 = 0.9	235.95 ± 1.2
573.15 K, 9432 kPa, Fluid (supercritical or subcritical phases), x1 = 0.2	271.68 ± 1.4
573.15 K, 9453 kPa, Fluid (supercritical or subcritical phases), x1 = 0.9	240.34 ± 1.2
573.15 K, 9462 kPa, Fluid (supercritical or subcritical phases), x1 = 0.8	234.13 ± 1.2
573.15 K, 9562 kPa, Fluid (supercritical or subcritical phases), x1 = 0.9	243.64 ± 1.2
573.15 K, 9806 kPa, Fluid (supercritical or subcritical phases), x1 = 0.8	244.74 ± 1.2
573.15 K, 9864 kPa, Fluid (supercritical or subcritical phases), x1 = 0.2	289.81 ± 1.5
573.15 K, 10272 kPa, Fluid (supercritical or subcritical phases), x1 = 0.2	306.05 ± 1.6
573.15 K, 10324 kPa, Fluid (supercritical or subcritical phases), x1 = 0.8	257.93 ± 1.3
573.15 K, 10392 kPa, Fluid (supercritical or subcritical phases), x1 = 0.2	310.27 ± 1.6
573.15 K, 10713 kPa, Fluid (supercritical or subcritical phases), x1 = 0.2	317.97 ± 1.6
573.15 K, 10865 kPa, Fluid (supercritical or subcritical phases), x1 = 0.8	271.86 ± 1.4
573.15 K, 11108 kPa, Fluid (supercritical or subcritical phases), x1 = 0.9	281.31 ± 1.4
573.15 K, 11531 kPa, Fluid (supercritical or subcritical phases), x1 = 0.2	340.39 ± 1.7
573.15 K, 11654 kPa, Fluid (supercritical or subcritical phases), x1 = 0.2	343.17 ± 1.7
573.15 K, 11678 kPa, Fluid (supercritical or subcritical phases), x1 = 0.8	287.66 ± 1.4
573.15 K, 12021 kPa, Fluid (supercritical or subcritical phases), x1 = 0.9	300.93 ± 1.5
573.15 K, 12217 kPa, Fluid (supercritical or subcritical phases), x1 = 0.8	298.45 ± 1.5
573.15 K, 12707 kPa, Fluid (supercritical or subcritical phases), x1 = 0.9	311.54 ± 1.6
573.15 K, 13246 kPa, Fluid (supercritical or subcritical phases), x1 = 0.8	314.57 ± 1.6
573.15 K, 13392 kPa, Fluid (supercritical or subcritical phases), x1 = 0.2	377.65 ± 1.9
573.15 K, 13687 kPa, Fluid (supercritical or subcritical phases), x1 = 0.2	382.44 ± 1.9
573.15 K, 14239 kPa, Fluid (supercritical or subcritical phases), x1 = 0.9	333.19 ± 1.7
573.15 K, 14284 kPa, Fluid (supercritical or subcritical phases), x1 = 0.2	390.25 ± 2
573.15 K, 14505 kPa, Fluid (supercritical or subcritical phases), x1 = 0.8	333.01 ± 1.7
573.15 K, 15392 kPa, Fluid (supercritical or subcritical phases), x1 = 0.8	344.5 ± 1.7
573.15 K, 16409 kPa, Fluid (supercritical or subcritical phases), x1 = 0.9	353.22 ± 1.8
573.15 K, 16662 kPa, Fluid (supercritical or subcritical phases), x1 = 0.2	417.59 ± 2.1
573.15 K, 17250 kPa, Fluid (supercritical or subcritical phases), x1 = 0.8	361.01 ± 1.8
573.15 K, 23293 kPa, Fluid (supercritical or subcritical phases), x1 = 0.2	469.08 ± 2.4
573.15 K, 24391 kPa, Fluid (supercritical or subcritical phases), x1 = 0.9	406.23 ± 2
573.15 K, 25613 kPa, Fluid (supercritical or subcritical phases), x1 = 0.8	417.11 ± 2.1
573.15 K, 32252 kPa, Fluid (supercritical or subcritical phases), x1 = 0.2	508.13 ± 2.6
573.15 K, 39390 kPa, Fluid (supercritical or subcritical phases), x1 = 0.8	465.43 ± 2.4
